{"source": "patent US20030013658A1", "about": "“Small peptides and methods for treatment of asthma and inflammation” (Hisatek, LLC, priority 1997, published 2003)", "key": {"[1]": {"system": "mast cell degranulation induced by Compound 48/80", "experiment": "Rat skin model: inhibition of Compound 48/80-induced mast cell degranulation (capillary permeability, trypan blue)", "type": "in vivo", "settings": "0.15 μg Compound 48/80", "method": "The Rat Skin Model for Determination of Inhibition of Mast Cell Degranulation\nIn this model, the blood plasma of the experimental rat is labeled with the dye trypan blue. This soluble dye is carried in the bloodstream as a passive marker of plasma itself, and is excluded from live cells. Intact blood vessels, including the capillary system, retain this dye under normal circumstances. A compound, which induces degranulation of mast cells (resulting in leukotriene and histamine release), is injected into the skin to simulate allergen-induced degranulation. In these experiments, Compound 48/80 was used for this purpose. In the events following leukotriene and histamine release, capillary permeability is increased, and plasma, dyed blue, leaks from capillaries and dyes the skin surrounding the injection site blue. The area of bluing is a measure of the amount of Compound 48/80 injected.\nA compound can be tested for “anti-leukotriene” and/or “anti-histamine” activity by mixing it with Compound 48/80 prior to injection.\nThe rat skin model was undertaken and validated. Various peptides were tested at a predetermined dose for anti-leukotriene and/or anti-histamine activity. The dose selected allowed a general comparison to f-Met-Leu-Phe, which was standard compound for comparison.\nA “dose response” titration was performed for some compounds and compared with the standard compound. Observing serial decreases in the size areas of capillary permeability using serially smaller doses of the putative inhibitory compound validates the inhibition of leukotriene and/or histamine release observed in the initial predetermined dose test.\nReagents were obtained from Sigma or Aldrich, with the exception of ketamine, a veterinary anaesthetic that was obtained from various veterinary suppliers. The rats used were male Sprague-Dawley breed, 220-240 g at time of purchase from B&K International.\nFor the rat skin reaction, rats were anaesthetized with 0.25 ml 10 mg/ml ketamine. 1.0 ml trypan blue in saline (sterile filtered) was administered in a tail vein, and the back of the rat was shaved. Four intradermal injection sites per rat were used for test and control injections.\nCompound 48/80 was prepared as a 1.5 mg/ml stock solution in saline. […] Serial dilutions in saline to working levels were prepared just prior to injection of each rat.\nPeptides were prepared as a 23 mM stock solution in DMSO, and stored at −20° C. between experiments. At the time of use, the frozen stock solutions were thawed, and appropriate aliquots added to dilutions of Compound 48/80, along with appropriate amounts of DMSO, to result in the ratio of 5 μl DMSO to 0.1 ml aqueous Compound 48/80.\nFor injections, 0.1 ml […], +1/− test compounds were injected intradermally into anaesthetized, dyed, and shaved rats. Following a 15 minute incubation, the rats were sacrificed by cervical dislocation and the back skin was evulsed and placed on a light box. An image of the backlit skin was digitized using a CCD video capture camera and compatible hardware/software. The digitized image was analyzed using a scientific graphics analysis software package, and the areas of capillary permeability (bluing) were integrated and digital values were obtained for further analysis.\nA dose response curve was generated using Compound 48/80 at various doses from ca. 0.01 μg through ca. 15 μg. […] A dose of 0.15 μg of Compound 48/80 was selected for conducting further tests.\nSeveral f-Met-Leu peptides were tested for inhibition of induced degranulation in the rat skin model using 100 nanomoles of the test peptide and a dose of 0.15 μg Compound 48/80. An intrinsic zero-peptide-dose 48/80 control was included in each rat for each experiment, and the % of inhibition was expressed in relative terms to this control (0% inhibition). The percent mast cell degranulation produced by 48/80 was also determined."}, "[2]": {"system": "induced type II collagen arthritis", "experiment": "Induced type II collagen arthritis mouse model", "type": "in vivo", "settings": "HK-X TC or footpad, 0.4 or 4 mg/kg for 20 days; method written in present tense", "excerpt": "A mouse model is used to evaluate the effect of the compounds of the present invention on the histological, radiographic and clinical appearance of induced type II collagen arthritis. Mice: DBA/1(2) male mice weighing 25 gms (Jackson Laboratories, Bar Harbor, Me. or B&K Universal, Kent Wash.) are used for this work. This strain of mouse is susceptible to CIA by the injection of heterologous type II collagen. Bovine Collagen (BC), Complete Freund's Adjuvant (CFA) and Incomplete Freund's Adjuvant (ICFA) can be obtained from Sigma Chemical. Antigen for immunization is processed in 0.1 M acetic acid and formulated with CFA or ICFA. […] The degree of cellularity and areas of inflammation are quantified by using digitization of histological photomicrographs and applying standard area and point counting techniques as described above. […] The average area of soft tissue (pannus) of the joint is determined by analysis of computer digitized radiographs, along with changes in density of the adjacent hard tissues by comparison with internal standards included with each radiograph. […] The significance of the differences in density and area for control and experimental mice is assessed using paired T-tests at each time point. […] Swelling of hind paws is also quantitated by measuring the thickness of the ankle from the medial to the lateral malledus with a constant tension caliper. […]"}}, "note": "Where no end group is shown, it is not given here. The star is where a group is joined. For = O=C*"}
{"substance": "f-Met-Leu-Phe-Phe (For-MLFF) [Example 9]", "values": [{"measurement": "inhibition of induced degranulation compared with standard f-Met-Leu-Phe", "setting": "[1]; dose response", "value": "unexpectedly substantially better than that of the standard compound f-Met-Leu-Phe"}, {"measurement": "dose response, inhibition of degranulation induced by Compound 48/80", "setting": "[1]; doses of 0 to about 230 nM peptide, FIG. 2 / FIG. 3", "value": "Surprisingly remarkable inhibition of degranulation induced by Compound 48/80 was clearly shown"}, {"measurement": "% Degranulation", "setting": "[1]; percent mast cell degranulation produced by 48/80, 100 nanomoles peptide", "value": "1-3%"}, {"measurement": "degree of arthritis", "setting": "[2]", "value": "found to reduce the degree of arthritis"}]}
